Reference: PMC11124362, “Metabolism, Disposition, Excretion, and Potential Transporter Inhibition of 7–16, an Improving 5-HT2A Receptor Antagonist and Inverse Agonist for Parkinson’s Disease” (Molecules, 2024)
Where two headings read alike, the source gives them in different places.

Legend:
5-HT2A receptor [1] = biological target: 5-HT2A receptor; design: method as in PMID 35279606; settings: cited from earlier work
[2] = Metabolite identification in mouse liver microsomes; assay type: in vitro ADME; settings: 7–16 10 µM, liver microsomes 1 mg/mL, NADPH, 37 °C, 60 min
Method: (§1) In accordance with our previous methods, 7–16 (10 µM) was incubated with mouse, rat, dog, monkey, and human liver microsome proteins (1 mg/mL) in 100 mM sodium phosphate buffer (pH 7.4) containing 10 mM magnesium chloride and 2 mM NADPH at 37 °C for 60 min. All samples were prepared in duplicates. The reactions were terminated by adding three times the volume of ice-cold acetonitrile (600 µL) and stored at −20 °C until analysis. Control samples without NADPH and 0-time point samples were included. As a positive control, testosterone (10 µM), which was metabolized to produce the hydroxylation metabolite, was used as a substrate to confirm the activity of the incubation system.
(§2) After pre-treatments, the samples were analyzed by an Acquity UPLC system coupled with a diode array detector (Waters Corporation, Milford, MA, USA) and Q Exactive HRMS (Thermo Electron Corporation, Waltham, MA, USA) (UPLC–UV-Q Exactive HRMS). Samples were separated on an Agilent XDB C18 column (150 × 2.1 mm i.d. 3.5 μm, Agilent Corporation, Santa Clara, CA, USA) at 40 °C by gradient elution with water and acetonitrile containing 0.1% formic acid. The flow rate was 0.40 mL/min. The ultraviolet (UV) detection wavelength was 286 nm. Q Exactive HRMS were operated at positive ion mode (3.5 kV) using a heating electrospray ionization source. Mass calibration was required to be performed before conducting experiments so as to achieve the best mass accuracy and mass calibration should be performed every five days. The metabolites were detected by full MS/dd-MS^2 analysis from m/z 100 to m/z 1000. The resolution of the first-class scan and second-class scan was 70,000 and 17,500, respectively. Thermo Compound Discover software was used to identify expected and unknown metabolites, and we finally proposed the 7–16 metabolic pathways based on the deduced metabolites and relevant drug biotransformation knowledge.

CYP1A2 [3] = test system: CYP1A2; design: method as in PMID 35279606; settings: previous study; read-out: CYP1A2 inhibition IC50; cited from earlier work
CYP2C19 = assay: Metabolic phenotype by rhCYP isozymes, CYP2C19; assay type: in vitro ADME, human; settings: 7–16 1 µM
Method: (§3) Based on the result of metabolite identification, two metabolites were selected as targets for metabolic phenotyping analysis. Seven CYP isozymes (CYP1A2, CYP2B6, CYP2C8, CYP2C9, CYP2C19, CYP2D6, and CYP3A4) were investigated using the rhCYP isozymes method. In brief, 7–16 (1 µΜ) was incubated with each rhCYP isozyme ([…]) in 100 mM sodium phosphate buffer (pH 7.4) containing 3 mM magnesium chloride. After 10 min of preincubation at 37 °C, the reactions were initiated by adding NADPH (1 mM) and then incubated at 37 °C in a shaking water bath for 0, 5, 15, and 30 min. The specific substrates of each rhCYP isozyme were incubated as the above method to confirm the activity of the incubation system. The samples were prepared in triplicates. The reactions were terminated by adding three times the volume of ice-cold acetonitrile (600 µL) and stored at −20 °C until analysis. After pre-treatment, the samples were determined by the LC–MS/MS (Shimadzu Exion-Triple Quad 4500) method. The relative contribution rate of each isozyme to the metabolism of 7–16 was evaluated in HLMs using the following formula: Contributionx% = Vx × Abundancex (pmol/mg protein)/Σ(Vi × Abundancei). Vx (µL/min/pmol) is the production rate of metabolites for each rhCYP isozyme.

CYP1A2 [4] = assay: Metabolic phenotype by rhCYP isozymes, CYP1A2; assay type: in vitro ADME, human; settings: 7–16 1 µM
Method: as §3

[5] = Metabolite identification in rat liver microsomes; assay type: in vitro ADME; settings: 7–16 10 µM, liver microsomes 1 mg/mL, NADPH, 37 °C, 60 min
Method: as §1, §2

5-HT2A receptor [6] = biological target: 5-HT2A receptor; design: method as in PMID 35279606; settings: cited from earlier work; remark: listed apart in the source
CYP2C8 = assay: Metabolic phenotype by rhCYP isozymes, CYP2C8; assay type: in vitro ADME, human; settings: 7–16 1 µM
Method: as §3

P-gp = biological target: T1, P-gp (Homo sapiens, UniProt P08183); assay: P-gp inhibitor assay in MDR1-MDCKII cells; assay type: in vitro ADME; settings: substrate Digoxin 10.0 µM, efflux ratio, read-out: Inhibition IC50, P-gp
T1 construct: expressed in transfected cells; host or cells: MDR1-MDCKII (Madin-Darby canine kidney cells)

OATP1B3 = biological target: T2, OATP1B3 (Homo sapiens, UniProt Q9NPD5)
T2 sequence (Q9NPD5 1-702): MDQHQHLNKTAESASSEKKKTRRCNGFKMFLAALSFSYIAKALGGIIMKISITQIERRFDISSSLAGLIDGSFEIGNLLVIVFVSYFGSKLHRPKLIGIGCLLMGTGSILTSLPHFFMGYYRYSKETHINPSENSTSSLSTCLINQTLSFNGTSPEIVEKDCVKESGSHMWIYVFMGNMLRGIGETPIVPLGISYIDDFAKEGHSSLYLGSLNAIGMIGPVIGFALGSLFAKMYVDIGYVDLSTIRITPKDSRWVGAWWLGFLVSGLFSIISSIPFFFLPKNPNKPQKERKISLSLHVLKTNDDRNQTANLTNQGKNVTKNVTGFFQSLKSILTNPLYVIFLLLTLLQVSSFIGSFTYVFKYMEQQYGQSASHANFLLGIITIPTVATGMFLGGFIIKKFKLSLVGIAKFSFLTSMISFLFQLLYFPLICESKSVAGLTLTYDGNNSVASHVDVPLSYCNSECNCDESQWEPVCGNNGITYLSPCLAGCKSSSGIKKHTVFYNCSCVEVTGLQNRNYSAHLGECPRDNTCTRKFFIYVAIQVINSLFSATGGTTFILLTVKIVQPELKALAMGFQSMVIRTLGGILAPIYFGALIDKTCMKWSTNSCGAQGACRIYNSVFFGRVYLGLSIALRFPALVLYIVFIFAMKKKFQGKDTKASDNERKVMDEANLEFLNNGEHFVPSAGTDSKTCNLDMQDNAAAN

CYP2C9 = assay: Metabolic phenotype by rhCYP isozymes, CYP2C9; assay type: in vitro ADME, human; settings: 7–16 1 µM
Method: as §3

T1 sequence (P08183 whole entry): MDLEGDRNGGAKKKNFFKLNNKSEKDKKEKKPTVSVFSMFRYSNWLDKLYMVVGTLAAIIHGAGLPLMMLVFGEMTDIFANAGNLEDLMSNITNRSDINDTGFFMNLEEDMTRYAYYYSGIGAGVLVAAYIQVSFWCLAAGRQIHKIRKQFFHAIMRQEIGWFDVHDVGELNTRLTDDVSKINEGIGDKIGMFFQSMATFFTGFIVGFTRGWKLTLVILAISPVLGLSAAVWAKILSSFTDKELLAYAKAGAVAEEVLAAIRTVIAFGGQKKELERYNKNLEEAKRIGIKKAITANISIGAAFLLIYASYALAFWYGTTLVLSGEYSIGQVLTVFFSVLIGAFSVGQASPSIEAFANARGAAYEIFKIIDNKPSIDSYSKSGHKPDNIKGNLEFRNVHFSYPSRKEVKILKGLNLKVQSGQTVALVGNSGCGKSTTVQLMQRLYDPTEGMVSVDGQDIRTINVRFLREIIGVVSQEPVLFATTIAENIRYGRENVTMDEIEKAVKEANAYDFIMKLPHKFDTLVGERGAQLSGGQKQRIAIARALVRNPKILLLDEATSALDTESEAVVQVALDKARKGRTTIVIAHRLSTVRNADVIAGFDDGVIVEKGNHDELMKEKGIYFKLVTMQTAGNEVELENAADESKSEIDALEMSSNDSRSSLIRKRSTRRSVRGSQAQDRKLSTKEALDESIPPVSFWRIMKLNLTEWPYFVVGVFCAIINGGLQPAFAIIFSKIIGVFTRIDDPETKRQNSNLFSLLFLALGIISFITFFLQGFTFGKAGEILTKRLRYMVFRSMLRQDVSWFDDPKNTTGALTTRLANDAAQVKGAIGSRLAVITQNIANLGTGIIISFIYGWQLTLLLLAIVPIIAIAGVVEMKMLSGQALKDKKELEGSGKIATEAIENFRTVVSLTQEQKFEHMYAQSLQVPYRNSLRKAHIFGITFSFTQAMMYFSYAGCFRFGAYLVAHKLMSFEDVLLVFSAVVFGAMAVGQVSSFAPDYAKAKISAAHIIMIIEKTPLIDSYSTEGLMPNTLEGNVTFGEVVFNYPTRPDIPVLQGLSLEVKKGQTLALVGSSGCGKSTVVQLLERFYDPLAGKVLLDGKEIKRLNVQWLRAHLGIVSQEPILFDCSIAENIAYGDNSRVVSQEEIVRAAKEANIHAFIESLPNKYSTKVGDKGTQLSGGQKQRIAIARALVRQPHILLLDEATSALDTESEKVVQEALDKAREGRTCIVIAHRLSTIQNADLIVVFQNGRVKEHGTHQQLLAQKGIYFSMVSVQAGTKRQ

CN1CCC(N(Cc2ccc(F)cn2)C(=O)NCc2ccc(OCC(F)(F)F)cc2)CC1 [7–16, 3-(4-(2,2,2-trifluoroethoxy)benzyl)-1-((5-fluoropyridin-2-yl)methyl)-1-(1-methylpiperidin-4-yl) urea]
IC50 (5-HT2A receptor [1]; previous study, read-out: 5-HT2A inverse agonist activity IC50): 0.0021 µM | fold higher inverse agonist activity than pimavanserin (5-HT2A receptor [1]; versus pimavanserin): 23 fold | Relative Abundance, UV Area% Mouse [2]: 91.3% | IC50 (CYP1A2 [3]): 8.5 µM | relative contribution of CYP2C19 to metabolism (CYP2C19): little or no contribution | relative contribution of CYP1A2 to metabolism (CYP1A2 [4]): little or no contribution | Relative Abundance, UV Area% Rat [5]: 86.1% | IC50 (5-HT2A receptor [6]; previous study, read-out: 5-HT2A receptor antagonist activity IC50): 0.00054 µM | fold higher 5-HT2A receptor antagonist activity than pimavanserin (5-HT2A receptor [6]; versus pimavanserin): 50 fold | relative contribution of CYP2C8 to metabolism (CYP2C8): little or no contribution | IC50 (P-gp): 30.6 µM | IC50 (OATP1B3): 89.5 µM | relative contribution of CYP2C9 to metabolism (CYP2C9): little or no contribution
